# System: blood sample (fibrin and platelet accumulation at collagen/tissue factor reaction zone)
# Assay: microfluidic flow assay of a blood sample treated with different doses of DOAC, fibrin and platelet fluorescence signal at two temperatures
# Format: cell-based, human
# Details: increasing Rivaroxaban dose, in relation to the HBS control; 37° C. and 21° C.
# Text: Fibrin signal decreases as Rivaroxaban (R) dose is increased, in relation to the HBS control, as expected. As temperature increases, fibrin reactions initiate carlier, fibrin and platelet maximum rate of change increases (steeper slope), and fibrin and platelet signals are increased overall at the same point in time. The DOAC drug dose effect seen at higher temperatures follows similar dose behavior seen at lower temperatures. As illustrated in FIGS. 49A-49B, about a two-fold platelet signal increase at 400 s is seen, a substantial increase in maximum rate of change of fluorescence is also seen. […]
# The device 100 can allow for up to eight unique conditions to be tested simultaneously. […] Estimated drug level can be determined through comparison to a fully attenuated sample and a fully reversed sample, in comparison to an IC50 drug response curve, linear regression, […] analysis or other statistical methodology. […]
# The system can rely on direct fluorescence signals for analysis of the results at the collagen/tissue factor 112. Fresh whole blood (used within minutes of venous draw), AF594 fibrinogen label (fibrinogen from human plasma, Alexa Fluor™ 594 conjugate) and platelet MCA2588A488 label (mouse anti-human CD61, Alexa Fluor™ 488 conjugate) can be added to the device 100 and the direct fluorescence signals can be analyzed. […]
smiles,measurement,value
O=C(NC[C@H]1CN(c2ccc(N3CCOCC3=O)cc2)C(=O)O1)c1ccc(Cl)s1 [Rivaroxaban],Fibrin signal,decreases
